Laboratory results as given in the NIST ThermoML archive (doi:10.1021/je100423n).

Key:
[1] = Crystal; DTA
[2] = Molar enthalpy of transition or fusion; settings: Crystal; DSC
[3] = molar heat capacity at constant pressure; settings: 101.33 kPa, Crystal

Cn1cc[n+](CCCS(=O)(=O)[O-])c1 [3-(1-methyl-1H-imidazolium-3-yl)propane-1-sulfonate]
Settings	Molar enthalpy of transition or fusion [kcal/mol]	Normal melting temperature [°C]
[1]	–	217.30
[2]	6.78	–

[3]
Settings	molar heat capacity at constant pressure [J/K/mol]
79.8 K	86.51
81.82 K	88.12
83.72 K	89.95
85.64 K	89.73
87.56 K	93.2
89.49 K	95.76
91.4 K	97.65
93.32 K	99.15
95.24 K	102.59
97.17 K	103.14
99.12 K	102.97
101.85 K	103.15
104.55 K	104.71
106.45 K	105.28
108.39 K	105.7
110.33 K	111.76
112.29 K	111.65
114.18 K	111.92
116.13 K	115.43
118.1 K	116.28
120.05 K	114.78
121.97 K	115.61
123.88 K	119.92
125.82 K	122.24
127.79 K	123.43
129.74 K	125.12
131.67 K	124.91
133.59 K	127.13
135.53 K	131.14
137.52 K	130.24
139.48 K	129.74
141.43 K	131.92
143.37 K	134.51
145.33 K	134.71
147.34 K	135.23
149.32 K	136.3
151.86 K	137.15
154.34 K	136.69
156.25 K	139.22
158.24 K	141.2
160.2 K	143.21
162.16 K	143.46
164.1 K	142.79
166.03 K	143.55
167.95 K	145.47
169.86 K	147.4
171.84 K	148.97
173.85 K	149.72
175.86 K	149.26
177.86 K	149.24
179.85 K	152.16
181.84 K	150.39
183.8 K	154.14
185.77 K	156.95
187.72 K	158.74
189.66 K	159.79
191.59 K	160.39
193.51 K	162.15
195.43 K	163.86
197.4 K	164.54
199.41 K	165.47
201.87 K	167.03
204.26 K	168.03
206.21 K	169.73
208.23 K	170.72
210.24 K	171.01
212.24 K	172.7
214.24 K	173.59
216.23 K	174.98
218.22 K	175.65
220.2 K	176.48
222.16 K	177.33
224.13 K	178.37
226.09 K	179.05
228.04 K	180.76
229.98 K	181.37
231.89 K	182.01
233.91 K	183.89
235.92 K	184.74
237.85 K	185.76
239.79 K	186.01
242.05 K	187.95
244.34 K	187.83
246.29 K	188.35
248.25 K	190.3
250.19 K	193.13
252.14 K	194.47
254.07 K	195.68
255.99 K	196.3
257.92 K	197.35
259.83 K	198.68
261.74 K	199.57
263.64 K	200.05
265.55 K	201.61
267.43 K	202.34
269.32 K	203.12
271.3 K	205.52
273.27 K	206.92
275.24 K	208.19
277.3 K	209.38
279.36 K	210.92
281.42 K	212.37
283.48 K	214.25
285.52 K	216.3
287.56 K	218.37
289.55 K	220.99
293.53 K	222.83
295.51 K	223.55
297.5 K	224.52
299.48 K	225.32
301.46 K	225.86
303.43 K	227.02
305.4 K	226.03
307.36 K	230.37
309.31 K	235.18
311.27 K	235.45
313.22 K	236.03
315.16 K	234.76
317.1 K	236.03
319.02 K	238.01
320.95 K	239.81
322.87 K	240.52
324.78 K	243.51
326.69 K	246.23
328.59 K	244.95
330.48 K	246.48
332.37 K	249.83
334.35 K	249.15
336.32 K	251.01
338.27 K	250.4
340.28 K	254.4
342.23 K	256.8
344.09 K	255.82
345.86 K	260.16
347.69 K	257.32
349.6 K	262.66
351.56 K	261.97
353.54 K	259.52
355.49 K	263.89
357.41 K	266.15
359.38 K	268.15
361.39 K	270.9
363.37 K	269.56
365.32 K	267.19
367.26 K	270.08
369.16 K	275.79
371.1 K	275.4
373.06 K	275.42
375 K	277.14
376.96 K	279.35
378.97 K	280.38
380.96 K	281.24
383.24 K	283.27
385.55 K	285.76
387.47 K	284.6
389.43 K	285.05
391.54 K	286.7
393.53 K	288.42
395.46 K	290.84
